Experimental data taken from US20150291625A1 (PFIZER INC., priority 2012, published 2015).
Where a name gives a salt, the structure may show the parent alone.

How the values were obtained:
D1 [1] = biological target: T1, D1 (Homo sapiens, UniProt P21728); test: D1 cAMP HTRF assay (HEK293T/hD1#1 stable cell line); assay type: cell-based; set-up: expressed in transfected cells
How it was run: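 Agonist-mode HTRF cAMP assay in HEK293T/hD1#1 stable cells resuspended in PBS with 0.5 μM IBMX; compound exposure 30 min at room temperature, then cAMP-D2 and anti-cAMP-cryptate detection for 1 h. EC50 from raw ratio data or from cAMP levels interpolated on a standard curve; percent effect versus controls.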

D1 [2] = biological target: T1, D1; test: Human D1 receptor binding assay ([3H]-SCH23390 competition); conditions: Human D1 Receptor Binding, Ki (nM), Geometric mean of 2-4 determinations, a: >=5 determinations, d: single determination
Description: D1 binding assays were performed using over-expressing LTK human cell lines. […] These ligand and tissue concentrations were used in time course studies to determine linearity and equilibrium conditions for binding. Binding was at equilibrium with the specified amount of tissue in 30 minutes at 37° C. […] The pellet was resuspended in assay buffer (50 mM Tris (pH 7.4@ RT) containing 4 mM MgSO4 and 0.5 mM EDTA). […] After a 30 minute incubation period at 37° C., assay samples were rapidly filtered through Unifilter-96 GF/B PEI-coated filter plates and rinsed with 50 mM Tris buffer (pH 7.4 at 4° C.). […] Ki values were calculated according to the Cheng-Prusoff equation.

T1 sequence (P21728 whole entry): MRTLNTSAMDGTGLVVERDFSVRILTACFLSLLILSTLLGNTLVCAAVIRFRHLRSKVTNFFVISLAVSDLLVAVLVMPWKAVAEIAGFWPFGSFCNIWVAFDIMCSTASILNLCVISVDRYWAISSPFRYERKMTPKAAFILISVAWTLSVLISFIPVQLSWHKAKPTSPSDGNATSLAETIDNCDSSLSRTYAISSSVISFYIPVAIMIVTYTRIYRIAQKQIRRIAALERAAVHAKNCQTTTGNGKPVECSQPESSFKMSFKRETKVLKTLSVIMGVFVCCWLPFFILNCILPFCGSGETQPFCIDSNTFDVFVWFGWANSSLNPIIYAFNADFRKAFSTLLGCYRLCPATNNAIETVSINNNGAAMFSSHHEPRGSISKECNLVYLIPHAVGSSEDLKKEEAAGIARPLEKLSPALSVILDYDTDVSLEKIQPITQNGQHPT

| Compound | EC50 (D1 [1]) [nM] | Ki (D1 [2]) [nM] |
| --- | --- | --- |
| Cc1ncnc(C)c1-c1c(F)cc(Oc2nccc3occc23)cc1F [Example 114, 4-[4-(4,6-dimethylpyrimidin-5-yl)-3,5-difluorophenoxy]furo[3,2-c]pyridine] | 103 | 21.2 |
| Cc1cc(Oc2nccc3occc23)ccc1-c1c(C)cnn2c(=O)[nH]nc12 [Example 115, 8-[4-(furo[3,2-c]pyridin-4-yloxy)-2-methylphenyl]-7-methyl[1,2,4]triazolo[4,3-b]pyridazin-3(2H)-one] | 777 | 194 |
| Cc1ncnc(C)c1-c1ccc(Oc2nccc3occc23)c2ccncc12 [Example 116, 8-(4,6-dimethylpyrimidin-5-yl)-5-(furo[3,2-c]pyridin-4-yloxy)isoquinoline] | 3440 | 481 |
| Cc1cc(Oc2nccc3occc23)ccc1-c1c(C)nc(C)c(=O)n1C [Example 117, 6-[4-(furo[3,2-c]pyridin-4-yloxy)-2-methylphenyl]-1,3,5-trimethylpyrazin-2(1H)-one] | 452 | 23.1 |
| Cc1cc(Oc2nccc3occc23)ccc1-c1c(C)ncnc1C(=O)O [Example 118, 5-[4-(furo[3,2-c]pyridin-4-yloxy)-2-methylphenyl]-6-methylpyrimidine-4-carboxylic acid] | > 30000 | > 986 |
| c1cc2occc2c(Oc2ccc(-c3nccc4occc34)cc2)n1 [Example 119, 4-[4-(furo[3,2-c]pyridin-4-yloxy)phenyl]furo[3,2-c]pyridine] | > 11200 | 2240 |
| Cc1ncncc1-c1ccc(Oc2nccc3occc23)cc1C(C)(C)C#N [Example 122, 2-[5-(furo[3,2-c]pyridin-4-yloxy)-2-(4-methylpyrimidin-5-yl)phenyl]-2-methylpropanenitrile] | 4590 | 211 |
| Cc1cc(Oc2nccc3occc23)ccc1-c1c(C)cnc(=O)n1C [Example 124, 6-[4-(furo[3,2-c]pyridin-4-yloxy)-2-methylphenyl]-1,5-dimethylpyrimidin-2(1H)-one] | 188 | 29.4 |
| Cc1cc(Oc2nccc3occc23)ccc1-c1cn[nH]c(=O)c1C [Example 125, 5-[4-(furo[3,2-c]pyridin-4-yloxy)-2-methylphenyl]-4-methylpyridazin-3(2H)-one] | 91.7 | 23 |
| Cc1cc(Oc2nccc3occc23)ccc1-c1cccc(=O)n1C [Example 126, 6-[4-(furo[3,2-c]pyridin-4-yloxy)-2-methylphenyl]-1-methylpyridin-2(1H)-one] | 546 | 39.9 |
| Cc1ncnc(C)c1-c1ccc(Oc2nccc3occc23)cc1Cl [Example 127, 4-[3-chloro-4-(4,6-dimethylpyrimidin-5-yl)phenoxy]furo[3,2-c]pyridine] | 127 | 14 |
| Cc1ncnc(C)c1-c1cc(F)c(Oc2nccc3occc23)c(F)c1 [Example 128, 4-[4-(4,6-dimethylpyrimidin-5-yl)-2,6-difluorophenoxy]furo[3,2-c]pyridine] | 5480 | 379 |
| Cc1cc(Oc2nccc3occc23)c(F)cc1-c1c(C)ncnc1C [Example 129, 4-[4-(4,6-dimethylpyrimidin-5-yl)-2-fluoro-5-methylphenoxy]furo[3,2-c]pyridine] | 268 | 32.3 |
| Cc1ncnc(C)c1-c1ccc(Oc2nccc3occc23)c(F)c1 [Example 130, 4-[4-(4,6-dimethylpyrimidin-5-yl)-2-fluorophenoxy]furo[3,2-c]pyridine] | 1050 | 73 |
| Cc1ncnc(C)c1-c1ccc(Oc2nccc3occc23)c(F)c1C [Example 131, 4-[4-(4,6-dimethylpyrimidin-5-yl)-2-fluoro-3-methylphenoxy]furo[3,2-c]pyridine] | 1550 | 135 |
| Cc1cc(Nc2nccc3occc23)ccc1-c1c(C)ncnc1C [Example 132, N-[4-(4,6-dimethylpyrimidin-5-yl)-3-methylphenyl]furo[3,2-c]pyridin-4-amine, formate salt] | 2260 | 39.9 |
| Cc1cc(Oc2nccc3occc23)ccc1-c1c(C)c(O)nc2nccn12 [Example 133, 5-[4-(furo[3,2-c]pyridin-4-yloxy)-2-methylphenyl]-6-methylimidazo[1,2-a]pyrimidin-7-ol] | 172 | 31.5 |
| Cc1cc(Oc2nccc3occc23)ccc1-c1nc(O)cnc1C [Example 136, 6-[4-(furo[3,2-c]pyridin-4-yloxy)-2-methylphenyl]-5-methylpyrazin-2-ol] | 2410 | 225 |
| Cc1cc(Oc2nccc3occc23)ccc1-c1ccc(O)c2nccn12 [Example 137, 5-[4-(furo[3,2-c]pyridin-4-yloxy)-2-methylphenyl]imidazo[1,2-a]pyridin-8-ol] | 209 | 42 |
| Cc1ncnc(C)c1-c1cc(F)c(Oc2nccc3occc23)cc1F [Example 139, 4-[4-(4,6-dimethylpyrimidin-5-yl)-2,5-difluorophenoxy]furo[3,2-c]pyridine] | 287 | 119 |
| Cc1cnnc(C)c1-c1ccc(Oc2nccc3occc23)cc1F [Example 140, 4-[4-(3,5-dimethylpyridazin-4-yl)-3-fluorophenoxy]furo[3,2-c]pyridine] | 292 | 48 |
| Cc1ncnc(C)c1-c1ccc(Oc2nccc3occc23)c(F)c1F [Example 141, 4-[4-(4,6-dimethylpyrimidin-5-yl)-2,3-difluorophenoxy]furo[3,2-c]pyridine] | 298 | 69.9 |
| Cc1ncnc(C)c1-c1ccc(Oc2nccc3occc23)c2cn(C)nc12 [Example 144, 4-{[7-(4,6-dimethylpyrimidin-5-yl)-2-methyl-2H-indazol-4-yl]oxy}furo[3,2-c]pyridine] | 3490 | 246 |
| Cc1cc(Oc2nccc3occc23)ccc1-c1ccnnc1C [Example 145, 4-[3-methyl-4-(3-methylpyridazin-4-yl)phenoxy]furo[3,2-c]pyridine] | 1440 | 110 |
| Cc1ncnc(C)c1-c1ccc(Oc2nccc3occc23)c2cnn(C)c12 [Example 148, 4-{[7-(4,6-dimethylpyrimidin-5-yl)-1-methyl-1H-indazol-4-yl]oxy}furo[3,2-c]pyridine, trifluoroacetate salt] | 777 | 111 |
| COc1nc(C)c(-c2ccc(Oc3nccc4occc34)cc2C)c(C)n1 [Example 149, 4-[4-(2-methoxy-4,6-dimethylpyrimidin-5-yl)-3-methylphenoxy]furo[3,2-c]pyridine] | 464 | 31.4 |
| Cc1cnnc(C)c1-c1ccc(Oc2nccc3occc23)cc1 [Example 150, 4-[4-(3,5-dimethylpyridazin-4-yl)phenoxy]furo[3,2-c]pyridine] | 443 | 67 |
| Cc1cc(Oc2nccc3occc23)ccc1-c1c(C)cnnc1N(C)C [Example 151, 4-[4-(furo[3,2-c]pyridin-4-yloxy)-2-methylphenyl]-N,N,5-trimethylpyridazin-3-amine, trifluoroacetate salt] | 1120 | 101 |
| Cc1cc(Oc2nccc3occc23)ccc1-c1c(C)nc(O)nc1C [Example 152, 5-[4-(furo[3,2-c]pyridin-4-yloxy)-2-methylphenyl]-4,6-dimethylpyrimidin-2-ol] | 565 | 79.5 |
